Source: US5484940A, “Substituted 3-indolyl-5-pyrazolone compounds” (priority 1994, dated 1996)

How the values were obtained:
[1] = tested on: 293 751 SWE cells; experiment: Cytotoxicity (MTT) in 293 751 SWE cells; type: cell-based, human; settings: concentration not given
Procedure: (§1) This screening assay employed cells (K293=human kidney cell line) which were stably transfected with the gene for amyloid precursor protein 751 (APP751) containing the double mutation Lys651 Met652 to Asn651 Leu652 (APP751 numbering) in the manner described in International Patent Application Publication No. 94/10569^1 and Citron et al.^16. This mutation is commonly called the Swedish mutation and the cells, designated as "293 751 SWE", were plated in Coming 96-well plates at 1.5-2.5×10^4 cells per well in Dulbecco's minimal essential media plus 10% fetal bovine serum. Cell number is important in order to achieve β-amyloid ELISA results within the linear range of the assay (~0.2 to 2.5 ng per mL).
Cytotoxic effects of the compounds were measured by a modification of the method of Hansen, et al.^17. To the cells remaining in the tissue culture plate was added 25 μL of a 3,(4,5-dimethylthiazol-2-yl)2,5-diphenyltetrazolium bromide (MTT) stock solution (5 mg/mL) to a final concentration of 1 mg/mL. Cells were incubated at 37° C. for one hour, and cellular activity was stopped by the addition of an equal volume of MTT lysis buffer (20% w/v sodium dodecylsulfate in 50% dimethylformamide, pH 4.7). Complete extraction was achieved by overnight shaking at room temperature. The difference in the OD562nm and the OD650nm was measured in a Molecular Device's UVmax microplate reader as an indicator of the cellular viability.

[2] = tested on: β-amyloid peptide production; experiment: Cellular screen for inhibitors of β-amyloid production (ELISA, 293 751 SWE cells); type: cell-based, human; settings: 2 h pretreatment + 2 h, normalized for cytotoxicity (MTT), concentration not given
Procedure: as §1
Following overnight incubation at 37° C. in an incubator equilibrated with 10% carbon dioxide, media were removed and replaced with 200 μL of a substituted 3-indolyl-5-pyrazolone (drug) containing media per well for a two hour pretreatment period and cells were incubated as above.
At the end of the pretreatment period, the media were again removed and replaced with fresh drag containing media as above and cells were incubated for an additional two hours. After treatment, plates were centrifuged in a Beckman GPR at 1200 rpm for five minutes at room temperature to pellet cellular debris from the conditioned media. From each well, 100 μL of conditioned media or appropriate dilutions thereof were transferred into an ELISA plate precoated with antibody 266 against amino acids 13-28 of β-amyloid peptide as described in International Patent Application Publication No. 94/10569^1 and stored at 4° C. overnight. An ELISA assay employing labelled antibody 6C6 against amino acids 1-16 of β-amyloid peptide was run the next day to measure the amount of β-amyloid peptide produced.
The results of the β-amyloid peptide ELISA were fit to a standard curve and expressed as ng/mL β-amyloid peptide. […] All results are the mean and standard deviation of at least six replicate assays.

## COc1ccc2c(c1)c(CC1=NN(c3cc(C)cc(C)c3)C(=O)C1)c(C)n2C(=O)c1ccc(Cl)cc1 [Example 29, 3-[1-(4-chlorobenzoyl)-5-methoxy-2-methyl-3-indolylmethyl]-1-(3,5-dimethylphenyl)-5-pyrazolone]
[1]
  cytotoxic effect on the 293 751 SWE cells: did not have a significant cytotoxic effect
[2]
  reduction of β-amyloid peptide production as compared to control: at least 20%

## COc1ccc2c(c1)c(CC1=NN(c3ccc(C(F)(F)F)cc3)C(=O)C1)c(C)n2C(=O)c1ccc(Cl)cc1 [Example 37, 3-[1-(4-chlorobenzoyl)-5-methoxy-2-methyl-3-indolylmethyl]-1-(4-trifluoromethylphenyl)-5-pyrazolone]
[1]
  cytotoxic effect on the 293 751 SWE cells: did not have a significant cytotoxic effect
[2]
  reduction of β-amyloid peptide production as compared to control: at least 20%

## COc1ccc2c(c1)c(CC1=NN(C3CCCCC3)C(=O)C1)c(C)n2C(=O)c1ccc(Cl)c(Cl)c1 [Example 39, 3-[1-(3,4-dichlorobenzoyl)-5-methoxy-2-methyl-3-indolylmethyl]-1-cyclohexyl-5-pyrazolone]
[1]
  cytotoxic effect on the 293 751 SWE cells: did not have a significant cytotoxic effect
[2]
  reduction of β-amyloid peptide production as compared to control: at least 20%

## COc1ccc2c(c1)c(CC1=NN(c3cccc(C(F)(F)F)c3)C(=O)C1)c(C)n2C(=O)c1ccc2ccccc2c1 [Example 51]
[1]
  cytotoxic effect on the 293 751 SWE cells: did not have a significant cytotoxic effect
[2]
  reduction of β-amyloid peptide production as compared to control: at least 20%

## COc1ccc2c(c1)c(CC1=NN(c3cccc(NC(C)=O)c3)C(=O)C1)c(C)n2C(=O)c1ccc(Cl)cc1 [Example 41, 3-[1-(4-chlorobenzoyl)-5-methoxy-2-methyl-3-indolylmethyl]-1-(3-acetamidophenyl)-5-pyrazolone]
[2]
  reduction of β-amyloid peptide production as compared to control: < 20%

## Cc1c(CC2=NN(C3CCCCC3)C(=O)C2)c2ccccc2n1C(=O)c1ccc(Cl)cc1 [Example 22, 3-[1-(4-chlorobenzoyl)-2-methyl-3-indolylmethyl]-1-cyclohexyl-5-pyrazolone]
[1]
  cytotoxic effect on the 293 751 SWE cells: did not have a significant cytotoxic effect
[2]
  reduction of β-amyloid peptide production as compared to control: at least 20%

## Cc1c(CC2=NN(C3CCCCC3)C(=O)C2)c2cc(Cl)ccc2n1C(=O)c1ccc(Cl)cc1 [Example 62, 3-[1-chlorobenzoyl-5-chloro-2-methyl-3-indolylmethyl]-1-cyclohexyl-5-pyrazolone]
[1]
  cytotoxic effect on the 293 751 SWE cells: did not have a significant cytotoxic effect
[2]
  reduction of β-amyloid peptide production as compared to control: at least 20%

## COc1ccc(C(=O)n2c(C)c(CC3=NN(C4CCCCC4)C(=O)C3)c3cc(OC)ccc32)cc1 [Example 57, 3-[1-(4-methoxybenzoyl)-5-methoxy-2-methyl-3-indolylmethyl]-1-cyclohexyl-5-pyrazolone]
[1]
  cytotoxic effect on the 293 751 SWE cells: did not have a significant cytotoxic effect
[2]
  reduction of β-amyloid peptide production as compared to control: at least 20%

## COc1ccc2c(c1)c(CC1=NN(Cc3ccccc3)C(=O)C1)c(C)n2C(=O)c1ccc(Cl)cc1 [Example 13, 3-[1-(4-chlorobenzoyl)-5-methoxy-2-methyl-3-indolylmethyl]-1-benzyl-5-pyrazolone]
[1]
  cytotoxic effect on the 293 751 SWE cells: did not have a significant cytotoxic effect
[2]
  reduction of β-amyloid peptide production as compared to control: at least 20%

## COc1ccc2c(c1)c(CCC1=NN(C3CCCCC3)C(=O)C1)c(C)n2C(=O)c1ccc(Cl)cc1 [Example 21, 3-[1-(4-chlorobenzoyl)-5-methoxy-2-methyl-3-indolylethyl]-1-cyclohexyl-5-pyrazolone]
[1]
  cytotoxic effect on the 293 751 SWE cells: did not have a significant cytotoxic effect
[2]
  reduction of β-amyloid peptide production as compared to control: at least 20%

## COc1ccc2c(c1)c(CC1=NN(C3CCCCCC3)C(=O)C1)c(C)n2C(=O)c1ccc(Cl)cc1 [Example 12, 3-[1-(4-chlorobenzoyl)-5-methoxy-2-methyl-3-indolylmethyl]-1-cycloheptyl-5-pyrazolone]
[1]
  cytotoxic effect on the 293 751 SWE cells: did not have a significant cytotoxic effect
[2]
  reduction of β-amyloid peptide production as compared to control: at least 20%

## CCCC(=O)n1c(C)c(CC2=NN(C3CCCCC3)C(=O)C2)c2cc(OC)ccc21 [Example 60, 3-[1-butanoyl-5-methoxy-2-methyl-3-indolylmethyl]-1-cyclohexyl-5-pyrazolon]
[1]
  cytotoxic effect on the 293 751 SWE cells: did not have a significant cytotoxic effect
[2]
  reduction of β-amyloid peptide production as compared to control: at least 20%

## COc1ccc2c(c1)c(CC1=NN(c3ccc(C(F)(F)F)cc3)C(=O)C1)c(C)n2C(=O)c1ccc(C#N)cc1 [Example 55, 3-[1-(4-cyanobenzoyl)-5-methoxy-2-methyl-3-indolylmethyl]-1-(4-trifluoromethylphenyl)-5-pyrazolone]
[1]
  cytotoxic effect on the 293 751 SWE cells: did not have a significant cytotoxic effect
[2]
  reduction of β-amyloid peptide production as compared to control: at least 20%

## COc1ccc2c(c1)c(CC1=NN(C3CCCCC3)C(=O)C1C)c(C)n2C(=O)c1ccc(Cl)cc1 (centres unmarked) [Example 43, 3-[1-(4-chlorobenzoyl)-5-methoxy-2-methyl-3-indolylmethyl]-1-cyclohexyl-4-methyl-5-pyrazolone]
[1]
  cytotoxic effect on the 293 751 SWE cells: did not have a significant cytotoxic effect
[2]
  reduction of β-amyloid peptide production as compared to control: at least 20%

## O=C1CC(CCCc2c[nH]c3ccccc23)=NN1C1CCCCC1 [Example 49, 3-[3-indolyl-n-propyl]-1-cyclohexyl-5-pyrazolone]
[1]
  cytotoxic effect on the 293 751 SWE cells: did not have a significant cytotoxic effect
[2]
  reduction of β-amyloid peptide production as compared to control: at least 20%

## COc1ccc2c(c1)c(CC1=NN(C)C(=O)C1)c(C)n2C(=O)c1ccc(Cl)cc1 [Example 46, 3-[1-(4-chlorobenzoyl)-5-methoxy-2-methyl-3-indolylmethyl]-1-methyl-5-pyrazolone]
[1]
  cytotoxic effect on the 293 751 SWE cells: did not have a significant cytotoxic effect
[2]
  reduction of β-amyloid peptide production as compared to control: at least 20%

## Cc1c(CC2=NN(c3cccc(C(F)(F)F)c3)C(=O)C2)c2cc(Cl)ccc2n1C(=O)c1ccc(Cl)cc1 [Example 63, 3-[1-(4-chlorobenzoyl)-5-chloro-2-methyl-3-indolylmethyl]-1-(3-trifluoromethylphenyl)-5-pyrazolone]
[1]
  cytotoxic effect on the 293 751 SWE cells: did not have a significant cytotoxic effect
[2]
  reduction of β-amyloid peptide production as compared to control: at least 20%

## CCCC(CCC)N1N=C(Cc2c(C)n(C(=O)c3ccc(Cl)cc3)c3ccc(OC)cc23)CC1=O [Example 16, 3-[1-(4-chlorobenzoyl)-5-methoxy-2-methyl-3-indolylmethyl]-1-(4-heptyl)-5-pyrazolone]
[1]
  cytotoxic effect on the 293 751 SWE cells: did not have a significant cytotoxic effect
[2]
  reduction of β-amyloid peptide production as compared to control: at least 20%

## COc1ccc2c(c1)c(CC1=NN(C3CCCCC3)C(=O)C1)c(C)n2Cc1ccccc1 [Example 20, 3-(1-benzyl-5-methoxy-2-methyl-3-indolylmethyl)-1-cyclohexyl-5-pyrazolone]
[1]
  cytotoxic effect on the 293 751 SWE cells: did not have a significant cytotoxic effect
[2]
  reduction of β-amyloid peptide production as compared to control: at least 20%

## COc1ccc2c(c1)c(CC1=NN(C3CCCC3)C(=O)C1)c(C)n2C(=O)c1ccc(Cl)cc1 [Example 11, 3-[1-(4-chlorobenzoyl)-5-methoxy-2-methyl-3-indolylmethyl]-1-cyclopentyl-5-pyrazolone]
[1]
  cytotoxic effect on the 293 751 SWE cells: did not have a significant cytotoxic effect
[2]
  reduction of β-amyloid peptide production as compared to control: at least 20%

## COc1ccc2c(c1)c(CC1=NN(c3cccc(Br)c3)C(=O)C1)c(C)n2C(=O)c1ccc(Cl)cc1 [Example 28, 3-[1-(4-chlorobenzoyl)-5-methoxy-2-methyl-3-indolylmethyl]-1-(3-bromophenyl)-5-pyrazolone]
[2]
  reduction of β-amyloid peptide production as compared to control: < 20%

## COc1ccc2c(c1)c(CC1=NN(C3CCCCC3)C(=O)C1(C)C)c(C)n2C(=O)c1ccc(Cl)cc1 [Example 44, 3-[1-(4-chlorobenzoyl)-5-methoxy-2-methyl-3-indolylmethyl]-1-cyclohexyl-4,4-dimethyl-5-pyrazolone]
[1]
  cytotoxic effect on the 293 751 SWE cells: did not have a significant cytotoxic effect
[2]
  reduction of β-amyloid peptide production as compared to control: at least 20%

## COc1ccc2c(c1)c(CC1=NN(c3cccc(C(F)(F)F)c3)C(=O)C1)c(C)n2C(=O)c1ccccc1 [Example 53, 3-[1-benzoyl-5-methoxy-2-methyl-3-indolylmethyl]-1-(3-trifluoromethylphenyl)-5-pyrazolone]
[1]
  cytotoxic effect on the 293 751 SWE cells: did not have a significant cytotoxic effect
[2]
  reduction of β-amyloid peptide production as compared to control: at least 20%
